BindingDB's records for doi:10.1016/j.bioorg.2016.09.007 (Shaoyang University, 2016)

Target: T1, Polyphenol oxidase 1 [61-568] (Agaricus bisporus, UniProt Q00024)
T1 construct: 61-568
T1 sequence (Q00024 whole entry): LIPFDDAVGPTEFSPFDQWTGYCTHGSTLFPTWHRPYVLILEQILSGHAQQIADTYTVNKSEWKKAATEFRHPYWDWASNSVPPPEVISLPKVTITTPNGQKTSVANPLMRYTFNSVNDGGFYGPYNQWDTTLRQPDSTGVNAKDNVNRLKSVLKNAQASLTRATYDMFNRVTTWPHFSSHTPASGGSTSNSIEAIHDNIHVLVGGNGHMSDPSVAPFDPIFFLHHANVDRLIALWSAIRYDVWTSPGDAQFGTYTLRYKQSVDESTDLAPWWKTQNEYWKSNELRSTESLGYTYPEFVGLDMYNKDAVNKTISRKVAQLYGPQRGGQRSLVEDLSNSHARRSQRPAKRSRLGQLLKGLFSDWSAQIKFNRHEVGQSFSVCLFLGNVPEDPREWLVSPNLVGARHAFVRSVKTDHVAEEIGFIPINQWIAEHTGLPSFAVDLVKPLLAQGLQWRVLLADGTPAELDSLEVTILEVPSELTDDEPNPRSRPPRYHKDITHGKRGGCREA
Assay: Tyrosinase Activity Assay
Details: pH 6.8
Protocol: Briefly, 1,3,4-thiadiazole derivatives were tested for diphenolase inhibitory activity of tyrosinase using L-DOPA (dihydroxyphenylalanine) as substrate. All the compounds were dissolved in DMSO and its final concentration in the reaction mixture was 2.0%. Thirty units of mushroom tyrosinase (0.5 mg/ml) were first pre-incubated with the compounds, in 50 mM phosphate buffer (pH 6.8), for 10 min at 25 °C. Then the L-DOPA (0.5 mM) was added to the reaction mixture and the enzyme reaction was continuously monitored by measuring the change in absorbance at 475 nm of formation of the DOPA chrome for 1 min.

SMILES	IC50
COc1cc(OC)c(C=Nc2nnc(S)s2)c(OC)c1 [2-((2,4,6-Trimethoxybenzylidene)amino)-5-mercapto-1,3,4-thiadiazole (16)]	907 nM
Sc1nnc(N=Cc2ccc(Cl)c(Cl)c2)s1 [2-((3,4-Dichlorobenzylidene)amino)-5-mercapto-1,3,4-thiadiazole (5)]	3620 nM
COc1cc(C=Nc2nnc(S)s2)cc(OC)c1 [2-((3,5-Dimethoxybenzylidene)amino)-5-mercapto-1,3,4-thiadiazole (11)]	5350 nM
Sc1nnc(N=Cc2cccc(Cl)c2)s1 [2-((3-Chlorobenzylidene)amino)-5-mercapto-1,3,4-thiadiazole (3)]	4750 nM
CC(C)(C)c1ccc(C=Nc2nnc(S)s2)cc1 [2-((4-(Tert-butyl)benzylidene)amino)-5-mercapto-1,3,4-thiadiazole (8)]	1390 nM
Sc1nnc(N=Cc2ccc(Cl)cc2)s1 [2-((4-Chlorobenzylidene)amino)-5-mercapto-1,3,4-thiadiazole (4)]	2460 nM
Oc1ccc(Cl)cc1C=Nc1nnc(SCc2ccccc2)s1 [2-(((5-(Benzylthio)-1,3,4-thiadiazol-2-yl)imino)methyl)-4-chlorophenol (17)]	247000 nM
Sc1nnc(N=Cc2ccccc2)s1 [2-(Benzylideneamino)-5-mercapto-1,3,4-thiadiazole (1)]	49200 nM
Oc1ccc(Br)cc1C=Nc1nnc(S)s1 [4-Bromo-2-(((5-mercapto-1,3,4-thiadiazol-2-yl)imino)methyl)phenol (7)]	1970 nM
Oc1ccc(Cl)cc1C=Nc1nnc(S)s1 [4-Chloro-2-(((5-mercapto-1,3,4-thiadiazol-2-yl)imino)methyl)phenol (6)]	1720 nM

Now those with a lower IC50, led by results:

IC50	SMILES
785 nM	Oc1ccccc1C=Nc1nnc(S)s1 [2-(((5-Mercapto-1,3,4-thiadiazol-2-yl)imino)methyl)phenol (12)]
765 nM	Fc1ccccc1C=Nc1nnc(S)s1 [2-((2-Fluorobenzylidene)amino)-5-mercapto-1,3,4-thiadiazole (2)]
733 nM	COc1ccccc1C=Nc1nnc(S)s1 [2-((2-Methoxybenzylidene)amino)-5-mercapto-1,3,4-thiadiazole (10)]
671 nM	O=[N+]([O-])c1ccccc1C=Nc1nnc(S)s1 [2-((2-Nitrobenzylidene)amino)-5-mercapto-1,3,4-thiadiazole (9)]
473 nM	COc1cc(C=Nc2nnc(S)s2)cc(OC)c1O [4-(((5-Mercapto-1,3,4-thiadiazol-2-yl)imino)methyl)-2,6-dimethoxyphenol (15)]
255 nM	Oc1ccc(C=Nc2nnc(S)s2)c(O)c1 [4-(((5-Mercapto-1,3,4-thiadiazol-2-yl)imino)methyl)benzene-1,3-diol (13)]
36 nM	COc1cc(C=Nc2nnc(S)s2)ccc1O [4-(((5-Mercapto-1,3,4-thiadiazol-2-yl)imino)methyl)-2-methoxyphenol (14)]
